In ChEMBL document CHEMBL1201862, “PubChem BioAssay data set” (2004):
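Each compound was tested at five concentrations against cells in 96-well plates for 48 hours. Abbreviation: GI50, concentration required for 50% inhibition of growth.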 Activity calls are given as the source filed them. Cut-off read from the data, not from the text of the source: active = GI50 up to about 1.1 µM and inactive = higher.

Tests used:
Experiment in all cases: NCI tumour cell line growth inhibition, 48 h
[1] = test system: Malme-3M
[2] = test system: SF-539
[3] = test system: SF-268
[4] = test system: OVCAR-5
[5] = test system: HOP-62
[6] = test system: UACC-62
[7] = test system: OVCAR-4
[8] = test system: M14
[9] = test system: NCI/ADR-RES
[10] = test system: HL-60
[11] = test system: SK-MEL-28
[12] = test system: LOX IMVI
[13] = test system: HOP-92
[14] = test system: NCI-H23
[15] = test system: OVCAR-3
[16] = test system: SNB-75
[17] = test system: SW-620
[18] = test system: KM12
[19] = test system: A498
[20] = test system: DMS-114

CC(C)(CN1CCCCC1)C(=O)/C=C/c1ccc(/C=C/C(=O)C(C)(C)CN2CCCCC2)cc1 was tested, and the GI50 [1] was 871 nM (active), the GI50 [2] was 538 nM (active) and the GI50 [3] was 413 nM (active). For the same compound, the GI50 [4] was 726 nM (active), the GI50 [5] was 946 nM (active) and the GI50 [6] was 1020 nM (active). The GI50 [7] was 368 nM (active), the GI50 [8] was 908 nM (active) and the GI50 [9] was 393 nM (active). For the same compound, the GI50 [10] was 116 nM (active), the GI50 [11] was 1170 nM (inactive) and the GI50 [12] was 268 nM (active). For the same compound, the GI50 [13] was 333 nM (active), the GI50 [14] was 711 nM (active) and the GI50 [15] was 369 nM (active). The GI50 [16] was 673 nM (active), the GI50 [17] was 112 nM (active) and the GI50 [18] was 434 nM (active). The GI50 [19] was 1600 nM (inactive) and the GI50 [20] was 701 nM (active).
